Earlier results in patent publication US8450379B2, “Methods for treating migraine” (Corcept Therapeutics, Inc., priority 2002, dated 2013).

How the values were obtained:
[1] = one study (Kawai)
progesterone receptors = biological target: T1, progesterone receptors (Homo sapiens, UniProt P06401)
T1 sequence (P06401 1-933): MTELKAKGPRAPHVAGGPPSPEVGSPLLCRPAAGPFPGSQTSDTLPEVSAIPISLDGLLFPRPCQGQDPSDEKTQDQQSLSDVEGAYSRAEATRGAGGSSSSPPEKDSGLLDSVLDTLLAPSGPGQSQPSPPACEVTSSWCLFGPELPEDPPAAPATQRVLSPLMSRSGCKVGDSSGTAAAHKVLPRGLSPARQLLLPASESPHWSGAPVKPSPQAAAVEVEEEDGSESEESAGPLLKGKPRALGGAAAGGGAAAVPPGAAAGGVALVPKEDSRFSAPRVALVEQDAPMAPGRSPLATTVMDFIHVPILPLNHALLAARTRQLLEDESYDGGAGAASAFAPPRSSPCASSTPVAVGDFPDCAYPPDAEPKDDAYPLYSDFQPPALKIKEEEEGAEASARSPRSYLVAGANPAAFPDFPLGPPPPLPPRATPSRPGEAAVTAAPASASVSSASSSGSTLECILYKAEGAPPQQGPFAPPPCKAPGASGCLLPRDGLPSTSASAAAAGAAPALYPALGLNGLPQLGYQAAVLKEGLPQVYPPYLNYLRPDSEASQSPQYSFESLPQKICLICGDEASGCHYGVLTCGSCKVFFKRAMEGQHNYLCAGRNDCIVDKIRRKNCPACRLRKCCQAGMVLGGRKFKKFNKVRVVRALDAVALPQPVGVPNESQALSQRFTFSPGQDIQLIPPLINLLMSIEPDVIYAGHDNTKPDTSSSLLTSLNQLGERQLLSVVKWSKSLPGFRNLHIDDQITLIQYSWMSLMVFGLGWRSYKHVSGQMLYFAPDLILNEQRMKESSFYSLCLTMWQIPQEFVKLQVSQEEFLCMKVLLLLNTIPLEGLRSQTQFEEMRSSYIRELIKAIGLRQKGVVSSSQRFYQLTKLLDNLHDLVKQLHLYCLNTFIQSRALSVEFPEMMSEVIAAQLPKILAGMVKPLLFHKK

[2] = biological target: T2, glucocorticoid (GR) receptors (Homo sapiens, UniProt P04150)
T2 sequence (P04150 1-777): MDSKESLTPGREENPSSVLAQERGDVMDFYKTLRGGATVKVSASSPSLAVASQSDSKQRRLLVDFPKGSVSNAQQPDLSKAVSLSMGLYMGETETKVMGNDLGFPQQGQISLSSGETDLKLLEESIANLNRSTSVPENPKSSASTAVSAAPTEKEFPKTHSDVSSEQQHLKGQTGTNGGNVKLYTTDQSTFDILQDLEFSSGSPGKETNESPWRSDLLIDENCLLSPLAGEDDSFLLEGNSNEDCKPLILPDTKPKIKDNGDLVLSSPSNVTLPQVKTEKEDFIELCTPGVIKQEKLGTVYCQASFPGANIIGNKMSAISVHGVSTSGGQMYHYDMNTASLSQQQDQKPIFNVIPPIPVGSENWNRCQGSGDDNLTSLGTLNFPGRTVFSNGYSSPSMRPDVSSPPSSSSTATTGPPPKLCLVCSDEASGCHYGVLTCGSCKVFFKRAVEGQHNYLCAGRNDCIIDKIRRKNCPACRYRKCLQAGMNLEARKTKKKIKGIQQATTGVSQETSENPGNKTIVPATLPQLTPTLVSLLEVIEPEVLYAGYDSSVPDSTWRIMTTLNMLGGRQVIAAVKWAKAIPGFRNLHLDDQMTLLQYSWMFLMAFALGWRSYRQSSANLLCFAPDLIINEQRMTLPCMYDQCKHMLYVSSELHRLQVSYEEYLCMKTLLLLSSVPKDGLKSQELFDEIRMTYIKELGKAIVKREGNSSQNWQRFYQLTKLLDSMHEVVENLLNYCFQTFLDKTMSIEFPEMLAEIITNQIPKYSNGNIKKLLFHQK

[3] = biological target: T3, Mineralocorticoid receptors (MRs) (Homo sapiens, UniProt P08235); settings: MR versus GR
T3 sequence (P08235 1-984): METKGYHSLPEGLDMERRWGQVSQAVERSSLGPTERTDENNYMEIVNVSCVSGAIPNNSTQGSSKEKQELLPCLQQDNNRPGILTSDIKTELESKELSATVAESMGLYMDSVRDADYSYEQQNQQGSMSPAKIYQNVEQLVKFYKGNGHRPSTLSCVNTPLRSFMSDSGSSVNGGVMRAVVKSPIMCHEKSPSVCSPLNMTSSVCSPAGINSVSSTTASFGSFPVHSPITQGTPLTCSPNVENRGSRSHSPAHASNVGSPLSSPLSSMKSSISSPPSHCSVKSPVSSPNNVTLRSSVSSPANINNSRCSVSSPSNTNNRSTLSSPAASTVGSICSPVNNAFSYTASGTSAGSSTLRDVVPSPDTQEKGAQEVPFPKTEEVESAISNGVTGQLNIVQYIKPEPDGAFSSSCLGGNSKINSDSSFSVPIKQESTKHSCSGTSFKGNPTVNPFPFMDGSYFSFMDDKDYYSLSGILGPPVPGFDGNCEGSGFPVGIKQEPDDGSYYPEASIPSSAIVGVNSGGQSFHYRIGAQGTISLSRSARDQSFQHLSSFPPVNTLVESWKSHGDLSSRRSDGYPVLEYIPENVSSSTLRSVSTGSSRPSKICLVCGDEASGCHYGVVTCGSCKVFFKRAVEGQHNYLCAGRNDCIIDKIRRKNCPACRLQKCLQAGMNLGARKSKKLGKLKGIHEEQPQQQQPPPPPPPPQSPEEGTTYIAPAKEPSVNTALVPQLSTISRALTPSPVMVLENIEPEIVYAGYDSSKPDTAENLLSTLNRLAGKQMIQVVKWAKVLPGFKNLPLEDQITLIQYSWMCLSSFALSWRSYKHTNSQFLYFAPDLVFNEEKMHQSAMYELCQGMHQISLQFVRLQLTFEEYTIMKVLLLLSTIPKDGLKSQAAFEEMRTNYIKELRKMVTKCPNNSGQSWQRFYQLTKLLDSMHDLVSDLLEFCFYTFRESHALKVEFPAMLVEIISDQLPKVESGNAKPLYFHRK

Row | SMILES | fraction of the daily dose excreted in the urine [1] | antagonism of progesterone receptor (progesterone receptors) | antagonism of glucocorticoid (GR) receptor [2] | affinity of MR for cortisol relative to GR binding of glucocorticoids [3]
1 | CC#C[C@]1(O)CC[C@H]2[C@@H]3CCC4=CC(=O)CCC4=C3[C@@H](c3ccc(N(C)C)cc3)C[C@@]21C [Mifepristone, (11β,17β) 11[4 (dimethylamino)phenyl]-17 hydroxy-17 (1 propynyl)estra-4,9 dien-3 one] | less than 0.5 % of the daily dose | powerful antagonist | powerful antagonist | –
2 | CC#C[C@]1(O)CC[C@H]2[C@@H]3CCC4=CC(=O)CCC4=C3[C@@H](c3ccc(OCCN(C)C)cc3)C[C@@]21C [RU009, 11β-(4-dimethylaminoethoxyphenyl)-17α-propynyl-17β-hydroxy-4,9-estradien-3-one] | – | – | GR antagonist effects | –
3 | C[C@]12CCC(=O)C=C1CC[C@@H]1[C@@H]2[C@@H](O)C[C@@]2(C)[C@H]1CC[C@]2(O)C(=O)CO [cortisol] | – | – | – | ten-fold higher affinity
